Experimental data from patent publication US9737502B2, “Calebin A for hepatic steatosis” (SAMI LABS LIMITED, priority 2011, dated 2017).
Marks after values point to notes of the source that are not given here.

Columns and labels:
[1] = tested on: IL-1 beta; assay: Serum IL-1 beta in LPS-injected mice after 6 days oral treatment (ELISA); assay type: in vivo, Swiss albino mice; details: graded doses, then LPS 1 mg/kg i.v., serum 90 min after LPS
Description: The present inventors also adduce study data on the ability of Calebin A to reduce expression of Extracellular TNF-α, IL-1 beta [FIG. 6] and IL-6 [FIG. 7] in serum from treated mice (in-vivo models). Swiss albino male mice aged 6-8 weeks were maintained at 22±2° C. under 12/12 h light dark cycle. Mice received oral treatment of test drugs at graded doses (w/v) for 6 days, followed by intravenous injection of 1 mg/kg of LPS according to the method described by Brieva A, Guerrero A, Alonso-Lebrero J L and Pivel J P. 2001. Immunoferon, a glycoconjugate of natural origin, inhibits LPS-induced TNF-α production and inflammatory responses. International Immunopharmacology 1, 1979-1987. Six mice were employed in each group and experiments were performed in triplicates. TNF-α, IL-1 beta and IL-6 production was evaluated by a commercial ELISA kits (R&D Systems) in serum from treated mice, 90 min after LPS injection. Rolipram at 30 mg/kg was used as standard drug.

[2] = tested on: leptin; assay: Estimation of leptin in adipocyte supernatant by ELISA; assay type: cell-based; details: human adipocytes
Description: (§1) 3T3-L1 cells approximately 60×10^4 cells are seeded for 48-72 hrs to get 70-80% confluence. After 48 hrs 200 μl of AIM (Adipogenesis induction medium) freshly prepared is added. 72 hrs later 200 μl APM (Adipogenesis progression medium) with the test compounds in different concentrations is added to the wells. The cells are incubated for 48 hrs in a humidified atmosphere (37° C.) of 5% CO2 and 95% air. The supernatant is collected and stored for the estimation of leptin, adiponectin, IL-6 and TNF-α by ELISA. Cells are fixed by adding 100 μl of 10% formalin and ORO staining is done. OD is read at 492 nm in microplate reader. The results are expressed as IC50 values using Graphpad prism software.
(§2) The percentage of inhibition of adipogenesis is calculated as follows, % inhibition=C−T/[…] Where C-absorbance of Oil red 0 in differentiating/undifferentiated cells T-absorbance of Oil Red-O in sample treated differentiating/undifferentiated cells. The estimation of leptin, adiponectin, IL-6 and TNF-α is done according to user's manual from R&D Systems.

[3] = Serum biochemistry (TCHO, TG, HDL, GOT, GPT) in HFD-fed mice, 12 weeks; assay type: in vivo, C57BL/6J mice; details: for GPT: HFD 38.25 ± 8.92; for HDL: HFD 109.40 ± 1.34; for TG: HFD 151.00 ± 8.89; for TCHO: HFD 162.67 ± 15.89; for GOT: HFD 335.28 ± 18.80
Description: Food cups were replenished with fresh diet daily. […] Statistical analysis was done by Student's t test.
C57BL/6J mice fed with HFD for period of 12 weeks were evaluated for serum levels of GOT and GTP. Results indicated enhanced serum GOT and GTP (TABLE XI) when compared to the ND group.
Data were presented as the mean±SE (n=8 per group). […] ND: normal diet; HFD: high fat diet.

[4] = tested on: IL-1β; assay: Extracellular IL-1β in LPS-stimulated murine neutrophils; assay type: cell-based; details: for IL-1β Concentration: LPS Control 51.80 ± 2.18
[5] = tested on: leptin; assay: Study 2: serum leptin by ELISA in obese mice; assay type: in vivo, C57 mice; details: Study 2, end of study period
Description: (§3) Further, on completion of the study period blood samples were collected from all the animals in […] for estimation of systemic expression of leptin and adiponectin. Blood samples were collected humanely from retro-orbital plexus puncture method under mild ether anesthesia with the help of a fine capillary tube. The blood samples collected in tubes without anticoagulant were centrifuged at 3000 rpm for 10 minutes to obtain serum which was subjected to ELISA technique for the estimation of leptin and adiponectin. The import of leptin and adiponectin expression as biomarkers in obesity has been discussed in aforesaid paragraphs. […] Low systemic adiponectin levels have been cited as predictive factors in the progression of disease states like Type II Diabetes mellitus (Chamukuttan Snehalatha et al, “Plasma Adiponectin Is an Independent Predictor of Type 2 Diabetes in Asian Indians”, Diabetes Care December 2003 vol. 26 no. 12 3226-3229).

[6] = tested on: adiponectin; assay: Estimation of adiponectin in adipocyte supernatant by ELISA; assay type: cell-based; details: human adipocytes
Description: as §1, §2

[7] = tested on: TNF-α; assay: Estimation of TNF-α in adipocyte supernatant by ELISA; assay type: cell-based; details: human adipocytes
Description: as §1, §2

[8] = tested on: 3T3-L1 cells; assay: Oil Red-O staining of adipogenic cultures (adipogenesis inhibition); assay type: cell-based, mouse
Description: Terminal differentiation of adipocytes is accompanied by the accumulation of great amounts of lipids in large cytoplasmic vesicles. A common assay to measure adipocyte differentiation in cell culture is with the dye Oil Red-O (ORO). ORO is a lipid-soluble bright red dye which is a reliable indicator of adipocyte differentiation (adipogenesis).
as §1, §2

[9] = tested on: adiponectin; assay: Study 2: serum adiponectin by ELISA in obese mice; assay type: in vivo, C57 mice; details: Study 2, end of study period
Description: as §3

COc1cc(/C=C/C(=O)COC(=O)/C=C/c2ccc(O)c(OC)c2)ccc1O [Calebin A]
expression of IL-1 beta in serum [1]: effective in reducing | percentage inhibition of leptin production ([2]; 0.5 μg/ml): 34.92% | percentage inhibition of leptin production ([2]; 1.0 μg/ml): 41.04% | percentage inhibition of leptin production ([2]; 2.0 μg/ml): 39.48% | GPT ([3]; HFD + 0.25% Calebin A): 23.00 ± 2.92^c U/l | HDL ([3]; HFD + 0.25% Calebin A): 107.80 ± 2.05^a mg/dl | TG ([3]; HFD + 0.25% Calebin A): 121.25 ± 6.55^b mg/dl | TCHO ([3]; HFD + 0.25% Calebin A): 136.50 ± 7.51^c mg/dl | GOT ([3]; HFD + 0.25% Calebin A): 110.33 ± 2.52^b U/l | GPT ([3]; HFD + 1% Calebin A): 32.50 ± 3.00^a U/l | HDL ([3]; HFD + 1% Calebin A): 104.50 ± 8.80^a mg/dl | TG ([3]; HFD + 1% Calebin A): 89.75 ± 5.85^b mg/dl | TCHO ([3]; HFD + 1% Calebin A): 110.50 ± 17.97^a mg/dl | GOT ([3]; HFD + 1% Calebin A): 77.50 ± 11.12^c U/l | % Activity (suppression of IL-1 β expression) ([4]; 0.5 μg/ml): 20.38%↓ | IL-1β Concentration ([4]; 0.5 μg/ml): 41.24 ± 1.16 pg/mL | % Activity (suppression of IL-1 β expression) ([4]; 1.0 μg/ml): 24.20%↓ | IL-1β Concentration ([4]; 1.0 μg/ml): 39.26 ± 2.52 pg/mL | % Activity (suppression of IL-1 β expression) ([4]; 2.0 μg/ml): 28.26%↓ | IL-1β Concentration ([4]; 2.0 μg/ml): 37.16 ± 2.11 pg/mL | inhibition of leptin expression in the serum of obese animals [5]: insignificant effect | percentage enhancement of adiponectin expression ([6]; 0.5 μg/ml): 27.12% | percentage enhancement of adiponectin expression ([6]; 1.0 μg/ml): 34.06% | percentage enhancement of adiponectin expression ([6]; 2.0 μg/ml): 32.8% | percentage inhibition of TNF-α ([7]; 0.5 μg/ml): 36.03% | percentage inhibition of TNF-α ([7]; 1.0 μg/ml): 40.81% | percentage inhibition of TNF-α ([7]; 2.0 μg/ml): 45.47% | percentage adipogenesis inhibition ([8]; 0.5 μg/ml): 32.43% | percentage adipogenesis inhibition ([8]; 1.0 μg/ml): 38.59% | percentage adipogenesis inhibition ([8]; 2.0 μg/ml): 35.8% | enhancing the adiponectin expression in the serum of obese animals [9]: significant effect
